Experimental data as given in patent US20080031967A1, “Compositions, products and methods for controlling weight in a mammal” (priority 2005, published 2008).

Tests used:
[1] = test system: primary rat adipocytes; test: thermogenesis assay: oxygen consumption by adipocytes (oxygen probe); type: cell-based; conditions: fatty acid oxidation inhibitors
Method: Thermogenesis was measured using an oxygen probe to monitor oxygen consumption by the adipocytes as they oxidize fatty acids. This assay was developed in primary rat adipocytes (isolated as above) using a YSI 5300 monitor equipped with oxygen-sensitive electrodes in an 8-chamber air tight apparatus. […] Since oxygen consumption can be induced by both the Kreb's cycle (glucose metabolism) and β-oxidation (fatty acid metabolism), fatty acid oxidation inhibitors were used to test whether the increase in oxygen consumption is indeed induced by fatty acid oxidation. Valproic acid inhibits the entry of fatty acid into the mitochondria and 4-pentenoic acid inhibits β-ketothiolase (the enzyme in the last step of β-oxidation). […] It has been discovered that the use of the above-listed thermogenic agents in accordance with the present invention results in the effective modulation of thermogenesis in mammals. By “effective,” it is meant that administration of the thermogenic agents of the present invention results in a 10 to 15% increase in thermogenic activity in the in vitro oxygen consumption assay. Without wishing to be bound by theory, it is believed that the thermogenic agents of the present invention function by increasing the rate at which fatty acids are transported into the mitochondria and oxidized in the cell.

[2] = test system: primary rat adipocytes; conditions: validation compound, stated as known; cited from earlier work
[3] = test system: isolated rat adipocytes; conditions: dissolved oxygen monitor; cited from earlier work

Compound | effect on oxygen consumption induced by norepinephrine [1] | other results
C=CCCC(=O)O [4-pentenoic acid] | inhibit oxygen consumption induced by norepinephrine | –
CCCC(CCC)C(=O)O [Valproic acid] | inhibit oxygen consumption induced by norepinephrine | –
NC[C@H](O)c1ccc(O)c(O)c1 [norepinephrine] | – | effect on rate of fatty acid oxidation and oxygen consumption [2]: increase the rate of fatty acid oxidation and oxygen consumption
leptin: adipocyte-derived hormone | – | effect on beta-oxidation in adipocytes [3]: stimulates beta-oxidation
